Measured values reported in patent publication US10189816B2, “Substituted pyridines as inhibitors of human immunodeficiency virus replication” (priority 2015, dated 2019).

Each compound was assayed on NL-RLuc virus (assay: Inhibition of HIV replication (NL-RLuc reporter virus in MT-2 cells, luciferase readout)). Conditions: Human immunodeficiency virus 1, MT2, 120 h, read-out: Activity.
Type: cell-based
Summary of the method: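 Antiviral EC50 came from luciferase signal after 5-day multicycle replication of NL-RLuc virus in MT-2 cells with serially diluted compound (RPMI 1640, 10% heat-inactivated FBS), fitted by the median effect equation over at least 2 experiments.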
Work on `Cc1nc(C)c([C@H](OC(C)(C)C)C(=O)O)c(N2CCC(C)(C)CC2)c1-c1ccc2c(c1)CCN(Cc1ccc3c(c1)CCCO3)C2` [Compound 155, (S)-2-(tert-butoxy)-2-(5-(2-(chroman-6-ylmethyl)-1,2,3,4-tetrahydroisoquinolin-6-yl)-4-(4,4-dimethylpiperidin-1-yl)-2,6-dimethylpyridin-3-yl)acetic acid] yielded an EC50 of under 0.1 µM. In the case of `Cc1cc(CN2CCc3cc(-c4c(C)nc(C)c([C@H](OC(C)(C)C)C(=O)O)c4N4CCC(C)(C)CC4)ccc3C2)ccc1F` [Compound 71, (S)-2-(tert-butoxy)-2-(4-(4,4-dimethylpiperidin-1-yl)-5-(2-(4-fluoro-3-methylbenzyl)-1,2,3,4-tetrahydroisoquinolin-6-yl)-2,6-dimethylpyridin-3-yl)acetic acid], the EC50 is reported as under 0.1 µM. `Cc1nc(C)c([C@H](OC(C)(C)C)C(=O)O)c(N2CCC(C)(C)CC2)c1-c1ccc2c(c1)CCN(Cc1cccc(F)c1C)C2` [Compound 82, (S)-2-(tert-butoxy)-2-(4-(4,4-dimethylpiperidin-1-yl)-5-(2-(3-fluoro-2-methylbenzyl)-1,2,3,4-tetrahydroisoquinolin-6-yl)-2,6-dimethylpyridin-3-yl)acetic acid] was tested, and the EC50 was under 0.1 µM. Compound `Cc1ccc(CN2CCc3cc(-c4c(C)nc(C)c([C@H](OC(C)(C)C)C(=O)O)c4N4CCC(C)(C)CC4)ccc3C2)cc1C` [Compound 161, (S)-2-(tert-butoxy)-2-(5-(2-(3,4-dimethylbenzyl)-1,2,3,4-tetrahydroisoquinolin-6-yl)-4-(4,4-dimethylpiperidin-1-yl)-2,6-dimethylpyridin-3-yl)acetic acid] has an EC50 of under 0.1 µM. Work on `Cc1nc(C)c([C@H](OC(C)(C)C)C(=O)O)c(N2CCC(C)(C)CC2)c1-c1ccc2c(c1)CCN(Cc1ccccc1C(F)(F)F)C2` [Compound 12, (S)-2-(tert-butoxy)-2-(4-(4,4-dimethylpiperidin-1-yl)-2,6-dimethyl-5-(2-(2-(trifluoromethyl)benzyl)-1,2,3,4-tetrahydroisoquinolin-6-yl)pyridin-3-yl)acetic acid] yielded an EC50 of under 0.1 µM. In the case of `Cc1cccc(CN2CCc3cc(-c4c(C)nc(C)c([C@H](OC(C)(C)C)C(=O)O)c4N4CCC(C)(C)CC4)ccc3C2)c1` [Compound 3, (S)-2-(tert-butoxy)-2-(4-(4,4-dimethylpiperidin-1-yl)-2,6-dimethyl-5-(2-(3-methylbenzyl)-1,2,3,4-tetrahydroisoquinolin-6-yl)pyridin-3-yl)acetic acid], the EC50 is reported as under 0.1 µM. In the case of `Cc1nc(C)c([C@H](OC(C)(C)C)C(=O)O)c(N2CCC(C)(C)CC2)c1-c1ccc2c(c1)CCN(Cc1cccc(F)c1)C2` [Compound 7, (S)-2-(tert-butoxy)-2-(4-(4,4-dimethylpiperidin-1-yl)-5-(2-(3-fluorobenzyl)-1,2,3,4-tetrahydroisoquinolin-6-yl)-2,6-dimethylpyridin-3-yl)acetic acid], the EC50 is reported as under 0.1 µM. In the case of `Cc1ccccc1CN1CCc2cc(-c3c(C)nc(C)c([C@H](OC(C)(C)C)C(=O)O)c3N3CCC(C)(C)CC3)ccc2C1` [Compound 4, (S)-2-(tert-butoxy)-2-(4-(4,4-dimethylpiperidin-1-yl)-2,6-dimethyl-5-(2-(2-methylbenzyl)-1,2,3,4-tetrahydroisoquinolin-6-yl)pyridin-3-yl)acetic acid], the EC50 is reported as under 0.1 µM. In the case of `Cc1cc(CN2CCc3cc(-c4c(C)nc(C)c([C@H](OC(C)(C)C)C(=O)O)c4N4CCC(C)(C)CC4)ccc3C2)cc(F)c1F` [Compound 76, (S)-2-(tert-butoxy)-2-(5-(2-(3,4-difluoro-5-methylbenzyl)-1,2,3,4-tetrahydroisoquinolin-6-yl)-4-(4,4-dimethylpiperidin-1-yl)-2,6-dimethylpyridin-3-yl)acetic acid], the EC50 is reported as under 0.1 µM. For `Cc1cc(Cl)ccc1CN1CCc2cc(-c3c(C)nc(C)c([C@H](OC(C)(C)C)C(=O)O)c3N3CCC(C)(C)CC3)ccc2C1` [Compound 131, (S)-2-(tert-butoxy)-2-(5-(2-(4-chloro-2-methylbenzyl)-1,2,3,4-tetrahydroisoquinolin-6-yl)-4-(4,4-dimethylpiperidin-1-yl)-2,6-dimethylpyridin-3-yl)acetic acid], the EC50 was under 0.1 µM. `Cc1nc(C)c([C@H](OC(C)(C)C)C(=O)O)c(N2CCC(C)(C)CC2)c1-c1ccc2c(c1)CCN(Cc1cc(C(F)(F)F)ccc1F)C2` [Compound 70, (S)-2-(tert-butoxy)-2-(4-(4,4-dimethylpiperidin-1-yl)-5-(2-(2-fluoro-5-(trifluoromethyl)benzyl)-1,2,3,4-tetrahydroisoquinolin-6-yl)-2,6-dimethylpyridin-3-yl)acetic acid] showed an EC50 of under 0.1 µM. `Cc1nc(C)c([C@H](OC(C)(C)C)C(=O)O)c(N2CCC(C)(C)CC2)c1-c1ccc2c(c1)CCN(Cc1ccc(C(C)C)cc1)C2` [Compound 59, (S)-2-(tert-butoxy)-2-(4-(4,4-dimethylpiperidin-1-yl)-5-(2-(4-isopropylbenzyl)-1,2,3,4-tetrahydroisoquinolin-6-yl)-2,6-dimethylpyridin-3-yl)acetic acid] was tested, and the EC50 was under 0.1 µM. `Cc1cc(C)cc(CN2CCc3cc(-c4c(C)nc(C)c([C@H](OC(C)(C)C)C(=O)O)c4N4CCC(C)(C)CC4)ccc3C2)c1` [Compound 79, (S)-2-(tert-butoxy)-2-(5-(2-(3,5-dimethylbenzyl)-1,2,3,4-tetrahydroisoquinolin-6-yl)-4-(4,4-dimethylpiperidin-1-yl)-2,6-dimethylpyridin-3-yl)acetic acid] showed an EC50 of under 0.1 µM. For `Cc1nc(C)c([C@H](OC(C)(C)C)C(=O)O)c(N2CCC(C)(C)CC2)c1-c1ccc2c(c1)CCN(Cc1cc(C#N)ccc1F)C2` [Compound 63, (S)-2-(tert-butoxy)-2-(5-(2-(5-cyano-2-fluorobenzyl)-1,2,3,4-tetrahydroisoquinolin-6-yl)-4-(4,4-dimethylpiperidin-1-yl)-2,6-dimethylpyridin-3-yl)acetic acid], the EC50 was under 0.1 µM. `Cc1nc(C)c([C@H](OC(C)(C)C)C(=O)O)c(N2CCC(C)(C)CC2)c1-c1ccc2c(c1)CCN(Cc1cc(F)ccc1Cl)C2` [Compound 45, (S)-2-(tert-butoxy)-2-(5-(2-(2-chloro-5-fluorobenzyl)-1,2,3,4-tetrahydroisoquinolin-6-yl)-4-(4,4-dimethylpiperidin-1-yl)-2,6-dimethylpyridin-3-yl)acetic acid] showed an EC50 of under 0.1 µM. Work on `Cc1nc(C)c([C@H](OC(C)(C)C)C(=O)O)c(N2CCC(C)(C)CC2)c1-c1ccc2c(c1)CCN(Cc1cccc(C(F)(F)F)c1)C2` [Compound 2, (S)-2-(tert-butoxy)-2-(4-(4,4-dimethylpiperidin-1-yl)-2,6-dimethyl-5-(2-(3-(trifluoromethyl)benzyl)-1,2,3,4-tetrahydroisoquinolin-6-yl)pyridin-3-yl)acetic acid] yielded an EC50 of under 0.1 µM. Compound `Cc1nc(C)c([C@H](OC(C)(C)C)C(=O)O)c(N2CCC(C)(C)CC2)c1-c1ccc2c(c1)CCN(Cc1ccc(F)c(F)c1F)C2` [Compound 41, (S)-2-(tert-butoxy)-2-(4-(4,4-dimethylpiperidin-1-yl)-2,6-dimethyl-5-(2-(2,3,4-trifluorobenzyl)-1,2,3,4-tetrahydroisoquinolin-6-yl)pyridin-3-yl)acetic acid] has an EC50 of under 0.1 µM. For `Cc1ccc(F)cc1CN1CCc2cc(-c3c(C)nc(C)c([C@H](OC(C)(C)C)C(=O)O)c3N3CCC(C)(C)CC3)ccc2C1` [Compound 47, (S)-2-(tert-butoxy)-2-(4-(4,4-dimethylpiperidin-1-yl)-5-(2-(5-fluoro-2-methylbenzyl)-1,2,3,4-tetrahydroisoquinolin-6-yl)-2,6-dimethylpyridin-3-yl)acetic acid], the EC50 was under 0.1 µM. `Cc1ccc(CN2CCc3cc(-c4c(C)nc(C)c([C@H](OC(C)(C)C)C(=O)O)c4N4CCC(C)(C)CC4)ccc3C2)cc1C(F)(F)F` [Compound 16, (S)-2-(tert-butoxy)-2-(4-(4,4-dimethylpiperidin-1-yl)-2,6-dimethyl-5-(2-(4-methyl-3-(trifluoromethyl)benzyl)-1,2,3,4-tetrahydroisoquinolin-6-yl)pyridin-3-yl)acetic acid] was tested, and the EC50 was under 0.1 µM. Compound `COc1cccc(CN2CCc3cc(-c4c(C)nc(C)c([C@H](OC(C)(C)C)C(=O)O)c4N4CCC(C)(C)CC4)ccc3C2)c1` [Compound 6, (S)-2-(tert-butoxy)-2-(4-(4,4-dimethylpiperidin-1-yl)-5-(2-(3-methoxybenzyl)-1,2,3,4-tetrahydroisoquinolin-6-yl)-2,6-dimethylpyridin-3-yl)acetic acid] has an EC50 of under 0.1 µM. Work on `Cc1nc(C)c([C@H](OC(C)(C)C)C(=O)O)c(N2CCC(C)(C)CC2)c1-c1ccc2c(c1)CCN(Cc1ccc(OC(F)(F)F)c(Cl)c1)C2` [Compound 104, (S)-2-(tert-butoxy)-2-(5-(2-(3-chloro-4-(trifluoromethoxy)benzyl)-1,2,3,4-tetrahydroisoquinolin-6-yl)-4-(4,4-dimethylpiperidin-1-yl)-2,6-dimethylpyridin-3-yl)acetic acid] yielded an EC50 of under 0.1 µM. Work on `Cc1nc(C)c([C@H](OC(C)(C)C)C(=O)O)c(N2CCC(C)(C)CC2)c1-c1ccc2c(c1)CCN(Cc1ccc(C(F)(F)F)cc1)C2` [Compound 8, (S)-2-(tert-butoxy)-2-(4-(4,4-dimethylpiperidin-1-yl)-2,6-dimethyl-5-(2-(4-(trifluoromethyl)benzyl)-1,2,3,4-tetrahydroisoquinolin-6-yl)pyridin-3-yl)acetic acid] yielded an EC50 of under 0.1 µM. `Cc1cc(C#N)ccc1CN1CCc2cc(-c3c(C)nc(C)c([C@H](OC(C)(C)C)C(=O)O)c3N3CCC(C)(C)CC3)ccc2C1` [Compound 65, (S)-2-(tert-butoxy)-2-(5-(2-(4-cyano-2-methylbenzyl)-1,2,3,4-tetrahydroisoquinolin-6-yl)-4-(4,4-dimethylpiperidin-1-yl)-2,6-dimethylpyridin-3-yl)acetic acid] was tested, and the EC50 was under 0.1 µM. With `Cc1nc(C)c([C@H](OC(C)(C)C)C(=O)O)c(N2CCC(C)(C)CC2)c1-c1ccc2c(c1)CCN(Cc1ccc(Cl)cc1F)C2` [Compound 39, (S)-2-(tert-butoxy)-2-(5-(2-(4-chloro-2-fluorobenzyl)-1,2,3,4-tetrahydroisoquinolin-6-yl)-4-(4,4-dimethylpiperidin-1-yl)-2,6-dimethylpyridin-3-yl)acetic acid] the EC50 was under 0.1 µM.

Same assay, conditions: Human immunodeficiency virus 1, MT2, 120 h, read-out: EC50 μM
`Cc1nc(C)c([C@H](OC(C)(C)C)C(=O)O)c(N2CCC(C)(C)CC2)c1-c1ccc2c(c1)CCN(Cc1cccc(F)c1)C2` [Compound 7, (S)-2-(tert-butoxy)-2-(4-(4,4-dimethylpiperidin-1-yl)-5-(2-(3-fluorobenzyl)-1,2,3,4-tetrahydroisoquinolin-6-yl)-2,6-dimethylpyridin-3-yl)acetic acid] showed an EC50 of 0.004 µM. With `Cc1nc(C)c([C@H](OC(C)(C)C)C(=O)O)c(N2CCC(C)(C)CC2)c1-c1ccc2c(c1)CCN(Cc1ccc(C(C)C)cc1)C2` [Compound 59, (S)-2-(tert-butoxy)-2-(4-(4,4-dimethylpiperidin-1-yl)-5-(2-(4-isopropylbenzyl)-1,2,3,4-tetrahydroisoquinolin-6-yl)-2,6-dimethylpyridin-3-yl)acetic acid] the EC50 was 0.058 µM. Work on `Cc1nc(C)c([C@H](OC(C)(C)C)C(=O)O)c(N2CCC(C)(C)CC2)c1-c1ccc2c(c1)CCN(Cc1cc(F)ccc1Cl)C2` [Compound 45, (S)-2-(tert-butoxy)-2-(5-(2-(2-chloro-5-fluorobenzyl)-1,2,3,4-tetrahydroisoquinolin-6-yl)-4-(4,4-dimethylpiperidin-1-yl)-2,6-dimethylpyridin-3-yl)acetic acid] yielded an EC50 of 0.003 µM.
